Test results reported in patent US12570671B2 (BRISTOL-MYERS SQUIBB COMPANY, priority 2020, dated 2026).

Legend:
Ikaros = Ikaros (Homo sapiens, UniProt Q13422+Q96SW2); experiment: Helios Cellular Degradation Assay (Ikaros readout); format: cell-based; design: endogenous in cells; host or cells: Jurkat; settings: Jurkat cells, 72 h incubation, Ikaros-Alexa488 antibody staining, flow cytometry; read-out: Ikaros Jurkat IC50
Outline: (§1)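 Jurkat cells (80,000/well, RPMI+10% FBS) were treated with compound for 72 h at 37° C. After fixation and permeabilization they were stained with fluorescent antibodies to Helios, Ikaros and Aiolos. Intracellular protein levels were quantified by flow cytometry.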

Helios = Helios (Homo sapiens, UniProt Q96SW2+Q9UKS7); experiment: Helios Cellular Degradation Assay (Helios readout); format: cell-based; design: endogenous in cells; host or cells: Jurkat; settings: Jurkat cells, 72 h incubation, Helios-PE antibody staining, flow cytometry; read-out: Helios Jurkat IC50
Chain of Helios (Q9UKS7 whole entry): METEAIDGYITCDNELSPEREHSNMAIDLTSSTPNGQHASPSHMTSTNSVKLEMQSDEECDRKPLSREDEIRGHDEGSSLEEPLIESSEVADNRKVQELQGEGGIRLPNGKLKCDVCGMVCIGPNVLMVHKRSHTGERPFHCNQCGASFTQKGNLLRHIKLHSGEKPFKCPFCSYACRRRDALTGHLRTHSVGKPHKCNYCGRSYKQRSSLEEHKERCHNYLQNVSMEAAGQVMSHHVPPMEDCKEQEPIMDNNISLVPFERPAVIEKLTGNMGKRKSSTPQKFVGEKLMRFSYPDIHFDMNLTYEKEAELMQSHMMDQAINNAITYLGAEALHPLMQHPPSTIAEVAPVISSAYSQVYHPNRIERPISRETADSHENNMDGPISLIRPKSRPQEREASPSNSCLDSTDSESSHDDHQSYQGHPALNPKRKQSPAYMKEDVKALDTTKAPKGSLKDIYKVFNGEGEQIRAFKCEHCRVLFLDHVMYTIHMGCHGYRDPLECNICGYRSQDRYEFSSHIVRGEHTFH
Chain of Helios (Q96SW2 whole entry): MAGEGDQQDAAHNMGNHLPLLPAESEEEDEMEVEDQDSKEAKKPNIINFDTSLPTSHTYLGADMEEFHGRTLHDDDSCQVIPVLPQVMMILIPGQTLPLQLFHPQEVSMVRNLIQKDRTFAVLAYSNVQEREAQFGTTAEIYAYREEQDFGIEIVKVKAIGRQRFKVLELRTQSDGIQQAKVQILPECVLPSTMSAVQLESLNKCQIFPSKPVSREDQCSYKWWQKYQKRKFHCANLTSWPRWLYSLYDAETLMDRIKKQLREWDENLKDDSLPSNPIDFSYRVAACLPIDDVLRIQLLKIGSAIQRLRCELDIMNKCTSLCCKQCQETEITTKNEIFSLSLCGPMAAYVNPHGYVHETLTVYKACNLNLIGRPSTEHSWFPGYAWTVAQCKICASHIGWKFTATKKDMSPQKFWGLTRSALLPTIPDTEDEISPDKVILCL
Chain of Helios (Q16531 whole entry partner): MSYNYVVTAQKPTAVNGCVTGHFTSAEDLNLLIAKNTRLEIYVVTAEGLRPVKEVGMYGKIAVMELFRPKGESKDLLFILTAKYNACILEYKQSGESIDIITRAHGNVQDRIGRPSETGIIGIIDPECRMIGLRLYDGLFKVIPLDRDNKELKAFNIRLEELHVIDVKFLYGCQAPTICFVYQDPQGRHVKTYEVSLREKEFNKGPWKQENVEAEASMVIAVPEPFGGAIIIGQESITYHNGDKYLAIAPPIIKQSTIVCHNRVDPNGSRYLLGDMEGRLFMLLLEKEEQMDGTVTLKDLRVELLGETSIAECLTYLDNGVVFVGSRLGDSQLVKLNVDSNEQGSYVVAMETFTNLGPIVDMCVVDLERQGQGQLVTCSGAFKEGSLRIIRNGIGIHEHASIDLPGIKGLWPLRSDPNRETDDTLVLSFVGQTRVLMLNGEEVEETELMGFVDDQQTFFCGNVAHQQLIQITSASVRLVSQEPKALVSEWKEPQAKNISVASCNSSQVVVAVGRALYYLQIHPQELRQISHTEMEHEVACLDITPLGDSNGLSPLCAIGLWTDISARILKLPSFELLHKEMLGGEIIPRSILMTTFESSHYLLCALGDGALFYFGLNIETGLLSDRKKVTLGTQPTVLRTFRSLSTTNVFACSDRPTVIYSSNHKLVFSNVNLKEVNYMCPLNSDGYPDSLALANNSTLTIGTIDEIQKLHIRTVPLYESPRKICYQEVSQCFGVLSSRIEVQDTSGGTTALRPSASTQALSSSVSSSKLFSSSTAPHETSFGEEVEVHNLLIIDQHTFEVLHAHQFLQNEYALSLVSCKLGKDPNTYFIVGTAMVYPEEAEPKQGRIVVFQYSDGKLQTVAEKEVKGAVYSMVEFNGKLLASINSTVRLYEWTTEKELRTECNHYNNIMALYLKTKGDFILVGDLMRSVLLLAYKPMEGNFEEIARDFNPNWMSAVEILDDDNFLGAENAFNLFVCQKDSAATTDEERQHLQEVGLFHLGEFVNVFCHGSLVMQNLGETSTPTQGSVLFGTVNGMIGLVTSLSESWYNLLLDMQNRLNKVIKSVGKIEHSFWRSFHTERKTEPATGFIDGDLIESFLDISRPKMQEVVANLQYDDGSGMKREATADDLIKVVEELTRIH
Outline: as §1

Chain of Ikaros (Q13422 whole entry): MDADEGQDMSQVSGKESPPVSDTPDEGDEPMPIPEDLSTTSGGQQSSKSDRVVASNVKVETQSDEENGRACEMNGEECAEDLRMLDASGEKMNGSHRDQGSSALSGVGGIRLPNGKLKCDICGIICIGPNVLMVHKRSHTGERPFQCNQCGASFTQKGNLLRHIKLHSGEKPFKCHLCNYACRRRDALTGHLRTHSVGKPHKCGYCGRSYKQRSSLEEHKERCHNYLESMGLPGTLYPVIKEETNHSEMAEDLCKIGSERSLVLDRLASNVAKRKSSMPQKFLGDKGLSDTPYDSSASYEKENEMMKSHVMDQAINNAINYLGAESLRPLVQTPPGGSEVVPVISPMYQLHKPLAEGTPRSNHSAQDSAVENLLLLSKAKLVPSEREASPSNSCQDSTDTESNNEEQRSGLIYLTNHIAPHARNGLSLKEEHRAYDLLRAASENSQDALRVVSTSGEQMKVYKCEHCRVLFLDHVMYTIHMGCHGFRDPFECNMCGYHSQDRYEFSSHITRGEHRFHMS
Chain of Ikaros (Q96SW2 whole entry): as the sequence (Q96SW2 whole entry) above
Chain of Ikaros (Q16531 whole entry partner): as the sequence (Q16531 whole entry partner) above

| Structure (SMILES) | DC50 (Ikaros) [nM] | DC50 (Helios) [nM] |
| --- | --- | --- |
| O=C1CCC(N2Cc3cc(-c4cnc5ccccc5n4)ccc3C2=O)C(=O)N1 (stereo not shown) [Example 7, 3-[1-oxo-5-(quinoxalin-2-yl)-2,3-dihydro-1H-isoindol-2-yl]piperidine-2,6-dione] | > 20000 | 73 |
| O=C1CCC(N2Cc3cc(-c4ncc(F)c5[nH]ccc45)ccc3C2=O)C(=O)N1 (stereo not shown) [Example 11, 3-(5-{7-fluoro-1H-pyrrolo[3,2-c]pyridin-4-yl}-1-oxo-2,3-dihydro-1H-isoindol-2-yl)piperidine-2,6-dione] | 97 | 42 |
| Cc1cc(C#N)c(-c2ccc3c(c2)CN(C2CCC(=O)NC2=O)C3=O)nc1N (stereo not shown) [Example 180, 6-amino-2-(2-(2,6-dioxopiperidin-3-yl)-1-oxoisoindolin-5-yl)-5-methylnicotinonitrile] | ≥ 10000 | 20 |
| O=C1CCC(N2Cc3cc(-c4ccc5cccc(Cl)c5n4)ccc3C2=O)C(=O)N1 (stereo not shown) [Example 34, 3-[5-(8-chloroquinolin-2-yl)-1-oxo-2,3-dihydro-1H-isoindol-2-yl]piperidine-2,6-dione] | > 20000 | 70 |
| Nc1nc(-c2ccccc2)nc(-c2ccc3c(c2)CN(C2CCC(=O)NC2=O)C3=O)n1 (stereo not shown) [Example 73, 3-(5-(4-amino-6-phenyl-1,3,5-triazin-2-yl)-1-oxoisoindolin-2-yl)piperidine-2,6-dione] | 450 | 67 |
| O=C1CCC(N2Cc3cc(-c4ccc5c(n4)NCCC5)ccc3C2=O)C(=O)N1 (stereo not shown) [Example 137, 3-[1-oxo-5-(5,6,7,8-tetrahydro-1,8-naphthyridin-2-yl)-2,3-dihydro-1H-isoindol-2-yl]piperidine-2,6-dione] | ≥ 10000 | 10 |
| Nc1nc(-c2ccc3c(c2)CN(C2CCC(=O)NC2=O)C3=O)cc2ncccc12 (stereo not shown) [Example 57, 3-[5-(5-amino-1,6-naphthyridin-7-yl)-1-oxo-2,3-dihydro-1H-isoindol-2-yl]piperidine-2,6-dione] | > 20000 | 7 |
| Cc1cc(N)nc(-c2ccc3c(c2)CN(C2CCC(=O)NC2=O)C3=O)c1 (stereo not shown) [Example 140, 3-(5-(6-amino-4-methylpyridin-2-yl)-1-oxoisoindolin-2-yl)piperidine-2,6-dione] | ≥ 20000 | 20 |
| COc1cccc(-c2ccc3c(c2)CN(C2CCC(=O)NC2=O)C3=O)n1 (stereo not shown) [Example 155, 3-[5-(6-Methoxypyridin-2-yl)-1-oxo-2,3-dihydro-1H-isoindol-2-yl]piperidine-2,6-dione] | ≥ 20000 | 5330 |
| Cc1c(-c2ccc3c(c2)CN(C2CCC(=O)NC2=O)C3=O)nc(N)c2ccccc12 (stereo not shown) [Example 131, 3-[5-(1-amino-4-methylisoquinolin-3-yl)-1-oxo-2,3-dihydro-1H-isoindol-2-yl]piperidine-2,6-dione] | ≥ 20000 | 140 |
| CC(=O)N1CCN(c2cc(N)nc(-c3ccc4c(c3)CN(C3CCC(=O)NC3=O)C4=O)c2)CC1 (stereo not shown) [Example 186, 3-(5-(4-(4-acetylpiperazin-1-yl)-6-aminopyridin-2-yl)-1-oxoisoindolin-2-yl)piperidine-2,6-dione] | ≥ 10000 | ≥ 10000 |
| COC(=O)c1ccc2cnc(-c3ccc4c(c3)CN(C3CCC(=O)NC3=O)C4=O)nc2c1 (stereo not shown) [Example 41, methyl 2-[2-(2,6-dioxopiperidin-3-yl)-1-oxo-2,3-dihydro-1H-isoindol-5-yl]quinazoline-7-carboxylate] | > 20000 | > 20000 |
| CCCc1cc(N)nc(-c2ccc3c(c2)CN(C2CCC(=O)NC2=O)C3=O)c1C#N (stereo not shown) [Example 173, 6-amino-2-(2-(2,6-dioxopiperidin-3-yl)-1-oxoisoindolin-5-yl)-4-propylnicotinonitrile] | ≥ 10000 | 120 |
| COc1ccc(N)nc1-c1ccc2c(c1)CN(C1CCC(=O)NC1=O)C2=O (stereo not shown) [Example 106, 3-(5-(6-amino-3-methoxypyridin-2-yl)-1-oxoisoindolin-2-yl)piperidine-2,6-dione] | ≥ 20000 | 20 |
